# In patent publication US20050032822A1, “Dithiocarbamate derivatives and their use as antibacterial agents” (priority 2001, published 2005):
# Test system: M. tuberculosis H37Rv and two drug-resistant clinical isolates
# Assay: MIC and MBC against M. tuberculosis in liquid Shkolnikova medium / Lowenstein-Jensen medium
# Format: cell-based, Mycobacterium tuberculosis
# Settings: for MIC (minimal inhibitory concentration) against Mycobacterium tuberculosis: mean values of the three strains (H37Rv and two drug-resistant clinical isolates), 14 days at 37° C.; for MBC (minimal bactericidal concentration) against Mycobacterium tuberculosis: mean values of the three strains, read after 21-28 days on solid drug free Lowenstein-Jensen medium
Molecule,MIC (minimal inhibitory concentration) against Mycobacterium tuberculosis,MBC (minimal bactericidal concentration) against Mycobacterium tuberculosis
"CN(C)c1ncnc(SC(=S)N2CCCC2)c1[N+](=O)[O-] [Subst. Nr. 13, 4-dimethylamino-6-tetramethylenedithiocarbamoyl-5-nitropyrimidine]",3.12 µg/mL,6.25 µg/mL
"CNc1ncnc(SC(=S)N(C)C)c1[N+](=O)[O-] [Subst. Nr. 7, 4-methylamino-6-dimethyldithiocarbamoyl-5-nitropyrimidine]",7.78 µg/mL,10.42 µg/mL
"CN(C)C(=S)Sc1c(C#N)cc([N+](=O)[O-])cc1[N+](=O)[O-] [Subst. Nr. 9, 3,5-dinitro-2-dimethyldithiocarbamoylbenzonitrile]",4.78 µg/mL,6.25 µg/mL
"CCN(CC)C(=S)Sc1ncnc(NC)c1[N+](=O)[O-] [Subst. Nr. 4, 4-methylamino-6-diethyldithiocarbamoyl-5-nitropyrimidine]",6.25 µg/mL,12.5 µg/mL
"CCOc1nc(C)nc(SC(=S)N(CC)CC)c1[N+](=O)[O-] [Subst. Nr. 6, 4-ethoxy-2-methyl-6-diethyldithiocarbamoyl-5-nitropyrimidine]",20.8 µg/mL,41.7 µg/mL
"CCOc1nc(C)nc(SC(=S)N2CCCC2)c1[N+](=O)[O-] [Subst. Nr. 10, 4-ethoxy-2-methyl-6-tetramethylenedithiocarbamoyl-5-nitropyrimidine]",5.21 µg/mL,8.33 µg/mL
4-isopropylamino-6-diethyldithiocarbamoyl-5-nitropyrimidine [Subst. Nr. 1],31.3 µg/mL,100.0 µg/mL
"CN(C)C(=S)Sc1ncnc(N(C)C)c1[N+](=O)[O-] [Subst. Nr. 8, 4-dimethylamino-6-dimethyldithiocarbamoyl-5-nitropyrimidine]",7.81 µg/mL,12.5 µg/mL
"CNc1ncnc(SC(=S)N2CCCC2)c1[N+](=O)[O-] [Subst. Nr. 12, 4-methylamino-6-tetramethylenedithiocarbamoyl-5-nitropyrimidine]",3.64 µg/mL,8.33 µg/mL
"CCCOc1ncnc(SC(=S)N(C)C)c1[N+](=O)[O-] [Subst. Nr. 11, 4-propoxy-6-dimethyldithiocarbamoyl-5-nitropyrimidine]",9.37 µg/mL,12.5 µg/mL
"CCN(CC)C(=S)Sc1ncnc(NC2CC2)c1[N+](=O)[O-] [Subst. Nr. 2, 4-cyclopropylamino-6-diethyldithiocarbamoyl-5-nitropyrimidine]",20.8 µg/mL,29.1 µg/mL
"CCN(CC)C(=S)Sc1c(C#N)cc([N+](=O)[O-])cc1[N+](=O)[O-] [Subst. Nr. 3, 3,5-dinitro-2-diethyldithiocarbamoylbenzonitril]",5.37 µg/mL,7.29 µg/mL
"CCN(CC)C(=S)Sc1ncnc(N(C)O)c1[N+](=O)[O-] [Subst. Nr. 5, 4-methylhydroxyamino-6-diethyldithiocarbamoyl-5-nitropyrimidine]",9.38 µg/mL,12.5 µg/mL
